For series [1], the system named is Rattus norvegicus. Nature of the series: Antiinflammatory activity in rat assessed as reduction of carrageenan-induced foot edema at 100 mg/kg, po administered as two doses. Format: functional.
In series [2] the test system is Rattus norvegicus. As to the kind of experiment: Antiinflammatory activity against rat adjuvant arthritis model assessed as reduction of swelling in non-injected foot at 100 mg/kg, po administered for 16 days. To be noted: 384 h. Format: functional.
A short description of series [3]: Acute toxicity in po dosed mouse. Conditions: in vivo. Format: organism-based.
For series [4], the system named is Rattus norvegicus. Nature of the series: Antiinflammatory activity against rat adjuvant arthritis model assessed as reduction of swelling in non-injected foot at 50 mg/kg, po administered for 16 days. Format: functional. To be noted: 384 h.
For series [5], the system named is Rattus norvegicus. As to the kind of experiment: Antiinflammatory activity in po dosed rat assessed as reduction of carrageenan-induced foot edema administered as two doses. Format: functional, organism-based.
Series [6] relates to Rattus norvegicus. Nature of the series: Antiinflammatory activity against rat adjuvant arthritis model assessed as reduction of swelling in non-injected foot at 1 mg/kg, po administered for 16 days. Format: functional. Conditions: 384 h.
The subject of series [7] is Rattus norvegicus. Nature of the series: Antiinflammatory activity in rat assessed as reduction of carrageenan-induced foot edema at 25 mg/kg, po administered as two doses. Format: functional.
The test system of series [8] is Rattus norvegicus. Nature of the series: Antiinflammatory activity in rat assessed as reduction of carrageenan-induced foot edema at 50 mg/kg, po administered as two doses. Format: functional.
In series [9] the test system is Rattus norvegicus. As to the kind of experiment: Antiinflammatory activity against rat adjuvant arthritis model assessed as reduction of swelling in non-injected foot at 33 mg/kg, po administered for 16 days. To be noted: 384 h. Format: functional.

The values below come from ChEMBL document CHEMBL3243932, “Potential antiinflammatory compounds. 3. Compounds derived from acenaphthene and indan” (J Med Chem, 1979).

The structures appear in SMILES notation. Activity calls are given as the source filed them. No cut-off for these calls is given here.

As to `O=C(O)Cc1ccc(C2CC(=O)c3ccccc32)cc1` (configuration not stated), the inhibition in vivo at 100 mg/kg amounted to 36% in series [1] and 52% in series [2]. The median lethal dose (LD50) in [3] worked out at 1600 mg/kg.
Consider `CC1CC(=O)c2cc(-c3ccccc3)ccc21` (configuration not stated), for which, in series [1], the inhibition in vivo at 100 mg/kg was 7%. The compound also gave an LD50 in series [3] of 1600 mg/kg.
In the case of `O=C(O)Cc1ccc2c3c(cccc13)C(c1ccccc1)C2` (configuration not stated), the inhibition in vivo at 100 mg/kg in [1] is 53%; in series [2], 0%. The LD50 in series [3] was 400 mg/kg.
Regarding `O=C([O-])Cc1ccc2c(c1)CCC2C1CCCCC1.[Na+]` (configuration not stated), in series [1], the inhibition in vivo at 100 mg/kg worked out at 28%. In [3], this compound showed an LD50 of 1200 mg/kg.
Take `CC(C(=O)O)c1ccc2c3c(cccc13)C(c1ccccc1)C2` (configuration not stated): in series [1], the inhibition in vivo at 100 mg/kg was found to be 44%. Also, the inhibition in vivo at 50 mg/kg in series [4] was found to be 50%. In series [3], this compound registered an LD50 of 1600 mg/kg.
For the compound `O=C(O)Cc1ccc(C(CC(=O)O)c2ccccc2)cc1` (configuration not stated), the inhibition result in [5] is “inactive”.
With `O=C(O)Cc1ccc2c(c1)C(=O)/C(=C/c1ccc(Cl)cc1)C2`, the inhibition in vivo at 100 mg/kg in [1] was 0%; in [2], 43%. In series [3], this compound registered an LD50 of 1600 mg/kg.
For the compound `COc1ccc2c(c1)c(CC(=O)O)c(C)n2C(=O)c1ccc(Cl)cc1` [INDOMETHACIN], in [6], the inhibition in vivo at 1 mg/kg turned out to be 57%.
With `CC1CCc2cc(-c3ccccc3)ccc21` (configuration not stated), the inhibition in vivo at 100 mg/kg in series [1] came out at 35%. The inhibition in vivo at 50 mg/kg in [4] was found to be 32%. In series [3], this compound came in with an LD50 of 1600 mg/kg.
For `O=C(O)CCc1ccc(CC(=O)O)cc1`, the inhibition entry in [5] was “inactive”.
`O=C1CC(c2ccccc2)c2ccccc21` (configuration not stated): the inhibition in vivo at 100 mg/kg amounted to 48% in series [1] and 36% in series [2]. This compound also returned an LD50 in [3] of 1600 mg/kg.
For `O=C(O)Cc1ccc2c(c1)C(=O)CC2`, in series [1], the inhibition in vivo at 100 mg/kg turned out to be 0%. The compound also showed an LD50 in [3] of 1600 mg/kg.
For `O=C(O)Cc1ccc2c(c1)C(=O)/C(=C/c1ccccc1)C2`, the values for the inhibition in vivo at 100 mg/kg in [1] and in series [2] were 26% and 25%, respectively. Besides, the LD50 in series [3] worked out at 1600 mg/kg.
Regarding `O=C(O)Cc1ccc2c(c1)C(=O)CC2C1CCCCC1` (configuration not stated), in series [1], the inhibition in vivo at 100 mg/kg stood at 8%. Further, the LD50 in series [3] came to 1200 mg/kg.
On to `C/C=C/C(=O)c1ccc(-c2ccccc2)cc1`, for which the inhibition result in series [5] was “inactive”.
As for `O=C(O)CCC1CC(c2ccccc2)c2ccccc21` (configuration not stated), in series [7], the inhibition in vivo at 25 mg/kg is 0%. Also, the LD50 in [3] amounted to 300 mg/kg.
Consider `O=C(O)CC1CC(c2ccccc2)c2ccccc21` (configuration not stated), for which the inhibition in vivo at 100 mg/kg in series [1] came to 0%. The LD50 in series [3] was found to be 1600 mg/kg.
`C[C@]12CCC(=O)C=C1CC[C@@H]1[C@@H]2[C@@H](O)C[C@@]2(C)[C@H]1CC[C@]2(O)C(=O)CO` [HYDROCORTISONE]: the inhibition in vivo at 50 mg/kg in [8] came out at 51%.
As for `CC(C(=O)O)c1ccc2c(c1)C(=O)/C(=C/c1ccc(Cl)cc1)C2` (configuration not stated), the inhibition in vivo at 100 mg/kg in series [2] was determined as 53%.
On to `CCCCC1C(=O)N(c2ccccc2)N(c2ccccc2)C1=O` [PHENYLBUTAZONE], for which the inhibition in vivo at 50 mg/kg turned out to be 30% in series [8] and 50% in series [4]. The inhibition in vivo at 33 mg/kg in series [9] worked out at 42%.
